Values of other authors, collected in patent US20110039930A1 (Emisphere Technologies, Inc., priority 2009, published 2011).

Settings: bleeding, ulceration, perforation of the stomach or intestines

Question: With `COc1ccc2cc(C(C)C(=O)O)ccc2c1` (stereo not shown) [Naproxen, 2-(6-methoxynaphthalen-2-yl)propanoic acid] as the compound, how does the gastrointestinal adverse events read?
Answer: increased risk of serious gastrointestinal adverse events
